# What was measured:
# small cell lung cancer = experiment: Patients with small cell lung cancer; format: in vivo; details: cyclophosphamide, NO-substituted doxirubicin IV and BSO 4 mmol/kg IV four times/day; chest X-ray in two months
# Procedure: A person with a 80 pack-year history of smoking presents with hemoptosis and weight loss. […] The patient is given a combination therapy of cyclophosphamide (750 mg/m^2) plus NO-substituted doxirubicin (40 mg/m^2) and vincristine (2 mg) (all administered i.v.). The therapeutic regimen is repeated once at three weeks.
# A person with a 20 pack/year history of smoking presents with cough. […] The patient receives cyclophosphamide (750 mg/m^2 and NO-substituted doxirubicin (administered IV)). The patient also receives L-buthionine-S-sulfoximine, i.e., BSO (4 mmol/kg IV four times/day).
# [1] = molecular target: T1, E. coli gamma-glutamylcysteine synthetase (Escherichia coli, UniProt P0A6W9); experiment: Inactivation of E. coli gamma-GCS by homocysteine sulfoximines (preincubation with ATP, residual activity by coupled PK/LDH assay); format: biochemical; details: 100 μM inhibitor
# T1 construct: made in house
# T1 sequence (P0A6W9 whole entry): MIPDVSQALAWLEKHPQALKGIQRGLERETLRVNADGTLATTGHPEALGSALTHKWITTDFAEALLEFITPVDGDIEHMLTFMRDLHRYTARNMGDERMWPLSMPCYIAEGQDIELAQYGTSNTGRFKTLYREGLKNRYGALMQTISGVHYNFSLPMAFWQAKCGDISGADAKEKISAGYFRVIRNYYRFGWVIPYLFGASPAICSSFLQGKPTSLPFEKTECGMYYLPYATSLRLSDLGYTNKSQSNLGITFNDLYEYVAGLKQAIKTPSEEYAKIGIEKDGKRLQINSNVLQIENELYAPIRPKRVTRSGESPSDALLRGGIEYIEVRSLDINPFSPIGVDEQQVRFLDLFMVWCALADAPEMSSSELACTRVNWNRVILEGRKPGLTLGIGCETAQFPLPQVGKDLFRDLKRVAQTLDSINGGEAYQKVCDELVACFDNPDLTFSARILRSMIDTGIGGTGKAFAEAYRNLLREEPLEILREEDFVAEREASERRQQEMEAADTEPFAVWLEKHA
# Procedure: E. coli gamma-GCS was isolated from bacterial cells engineered to overexpress the enzyme; the isolation procedure was similar to that used previously to isolate mammalian gamma-GCS. […] The enzyme was assayed in reaction mixtures (final volume=1.0 ml) containing: 150 mM Tris·HCl, pH 8.2, 100 mM KCl, 25 mM MgCl2, 7.5 mM ATP, 7.5 mM phosphoenolpyruvate, 0.3 mM EDTA, 10 mM L-glutamate, 10 mM L-α-aminobutyrate (an L-cysteine analog), 0.3 mM NADH, 5 IU pyruvate kinase, and 5 IU lactate dehydrogenase. Reaction was initiated by adding gamma-GCS; in control studies, L-α-aminobutyrate was omitted from the reaction mixture. In this assay, pyruvate kinase (PK) and lactate dehydrogenase (LDH) are added in excess to detect formation of ADP, one of the products of the gamma-GCS reaction. The relevant enzyme reactions are shown as equations 1–3 below. Oxidation of NADH to NAD^+ is followed and quantitated spectrophotometrically at 340 nm (1 μmol oxidation gives ΔOD=−6.2) and is directly proportional to product formation by gamma-GCS. [drawing 2]
# Inhibition by homocysteine sulfoximines was carried out by preincubating the E. coli gamma-GCS with potential inhibitors in the presence of ATP and then removing aliquots of that mixture at specific times and assaying for residual activity using the assay procedure described above. The preincubation reaction mixtures contained (final volume=400 μl) the following: 210 mM Tris·HCl, pH 8.2, 142 mM KCl, 36 mM MgCl2, 10 mM ATP, 0.4 mM EDTA, various amounts of sulfoximine, and gamma-GCS. At intervals, 50 μl aliquots were removed and added to 1.0 ml assay reaction mixtures to determine residual activity spectrophotometrically. Results of a study indicate that E. coli gamma-GCS loses about 27% of its activity over 30 minutes in the absence of added inhibitors; this loss of activity represents an inherent instability in the enzyme when incubated under these reaction conditions in this particular experiment. […]
smiles,measurement,setting,value
CCCCS(=N)(=O)CC[C@H](N)C(=O)O (stereo partly drawn) [L-buthionine-S-sulfoximine],clinical outcome,small cell lung cancer,decrease in size of the mass
same,inactivation of E. coli gamma-GCS,[1]; 10 min preincubation,89%
same,inactivation of E. coli gamma-GCS,[1]; 30 min preincubation,virtually complete inactivation
